Measurements as given in US8557298B2, “Medicaments for chemotherapeutic treatment of disease” (Provectus Pharmatech, Inc., priority 1998, dated 2013).

Legend:
Staphylococcus aureus = assay type: cell-based
Experimental: The inventors tested this hypothesis by evaluating the chemotherapeutic properties of Rose Bengal and Erythrosin B on cultures of the bacterium Staphylococcus aureus. […] In both illustrations, test cultures were exposed to the indicated agents at the indicated concentrations for the indicated times; cytotoxicity was subsequently estimated by serial dilution (10×dilution per step) of the treated cell cultures into 96-well plates containing fresh culture media; these samples were then incubated under standard conditions. Viability (e.g., Logs of Growth) for each test culture was then estimated by counting the number of dilution steps resulting in positive cell growth. Cytotoxicity upon exposure to a particular agent is thereby estimated by the reduction in viability relative to unexposed (e.g., control) cultures.

[1] = Partition coefficient Kp (n-octanol / phosphate buffered saline); assay type: physicochemical; settings: n-octanol vs phosphate buffered saline, PBS, pH = 7.4
Experimental: For example, to a first approximation, an agent's potential for tissue accumulation can be estimated based on the partition coefficient, Kp. This in vitro parameter is purported to have predictive value relating to in vivo agent delivery at the cellular level. […] Kp is determined by measuring the ratio of equilibrium concentrations of an agent in a lipophilic phase (n-octanol) contacted with an aqueous phase (phosphate buffered saline, PBS, pH=7.4).

[2] = Toxicology data (LD50), murine administration; assay type: in vivo; settings: for LD50 p.o.: murine oral (p.o.) administration
various murine tumors = settings: within 24 hours
[3] = Systemic administration of Rose Bengal to obese laboratory mice, tissue accumulation; assay type: in vivo; settings: aqueous solution, i.p. or p.o.
Excerpt: For example, Rose Bengal's relatively large partition coefficient is indicative of a preference for accumulation in lipophilic tissue, such as cutaneous lipocytes.

[4] = test system: recurrent aggressive sarcoma tumor; assay: Intratumoral injection of 10% Rose Bengal into naturally-occurring sarcoma in a dog; assay type: in vivo
[5] = test system: BNL/SV40 liver cell tumor; assay: Intratumoral/peritumoral injection of 10% Rose Bengal into BNL/SV40 liver cell tumors in nude mice; assay type: in vivo, nude mice
[6] = Tissue pharmacokinetics of Rose Bengal after intraperitoneal injection into tumor-bearing nude mice; assay type: in vivo
Experimental: Tissue samples (liver, abdominal wall, and tumor) were immediately obtained from the sacrificed mice, homogenized, centrifuged for 10 minutes at 1520×g, and the resulting supernatant collected and analyzed fluorimetrically. […] At the same time, persistent accumulation occurs in tumor tissue, with greater than 50% of maximum measured agent concentration maintained in such tissues for periods in excess of 24 hours.

[7] = murine intravenous (i.v.) administration

O.O=C([O-])c1ccccc1-c1c2cc(I)c(=O)c(I)c-2oc2c(I)c([O-])c(I)cc12.[Na+].[Na+] [Erythrosin B]
Cytotoxic effect (reduction in viability, Logs of Growth) (Staphylococcus aureus): no significant chemotherapeutic response
Partition coefficient, Kp [1]: 1.9
LD50 i.v. [2, 7]: 370 mg/kg
LD50 p.o. [2]: >1,000 mg/kg

CC1(C)C(/C=C/C=C/C=C/C=C2\N(CCCCS(=O)(=O)O)c3ccc4ccccc4c3C2(C)C)=[N+](CCCCS(=O)(=O)[O-])c2ccc3ccccc3c21 [Indocyanine Green, reference compound]
Tumor retention after i.t. administration (various murine tumors): substantively migrates out of tumors
LD50 ([2]; mouse, in vivo, murine intravenous (i.v.) administration): 60 mg/kg

O=C([O-])c1c(Cl)c(Cl)c(Cl)c(Cl)c1-c1c2cc(Br)c(=O)c(Br)c-2oc2c(Br)c([O-])c(Br)cc12.[Na+].[Na+] [Phloxine B]
Partition coefficient, Kp [1]: 1.1
LD50 i.v. [2, 7]: 310 mg/kg
LD50 p.o. [2]: 310 mg/kg

CC1=C(CCC(=O)O)c2cc3[nH]c(cc4nc(cc5[nH]c(cc1n2)c(C)c5C(C)O)C(C)=C4C(C)O)c(C)c3CCC(=O)O (stereo not drawn) [Porphyrin HpIX, reference compound]
Partition coefficient, Kp [1]: 1.5
LD50 p.o. [2]: >1,000 mg/kg

O=C1OC2(c3cc(I)c(O)c(I)c3Oc3c2cc(I)c(O)c3I)c2c(Cl)c(Cl)c(Cl)c(Cl)c21 [Rose Bengal, 4,5,6,7-Tetrachloro-2′,4′,5′,7′-tetraiodofluorescein]
Cytotoxic effect (reduction in viability, Logs of Growth) (Staphylococcus aureus): marked chemotherapeutic response that is concentration dependent
Partition coefficient, Kp [1]: 11.5
Tissue accumulation after systemic administration [3]: highly selective accumulation of said agent in certain tissues
LD50 p.o. [2]: >1,000 mg/kg
Tumor response at follow-up examination ([4]; after 19 days): further measurable decrease in tumor size
Tumor response at follow-up examination ([4]; approximately 5 cc of 10% solution into approximately 20 cc tumor, after five days): measurable decrease in tumor density along with significant edema and apparent necrosis of large sections of the tumor
Side-effects in healthy tissue surrounding the tumor ([4]; intratumoral injection, dog): no significant side-effects
Effect on tumor growth ([5]; i.t. and p.t. injection of 10% Rose Bengal, over a period of several weeks): stasis, with no significant change in tumor volume
Time to clearance from normal tissue (tumor tissue remained stained) ([5]; mouse, in vivo): ≤ 7 days
Effect on normal tissue and adjacent tumor tissue ([5]; peritumoral injection alone): no significant effect on normal tissue, nor on the adjacent tumor tissue
Retention in normal tissue ([5]; peritumoral injection alone, after 24 hours): no detectable retention in normal tissue
Time for concentrations in normal tissue (abdominal wall) and liver to diminish to unmeasurable levels ([6]; i.p., 50-100 μL of 0.5% Rose Bengal in saline, tumor-bearing nude mice): ≤ 24 h
Share of maximum measured agent concentration maintained in tumor tissue ([6]; tumor tissue, periods in excess of 24 hours after i.p. injection): greater than 50%
